For experiment [1], the target named is T1, human recombinant estrogen receptor alpha (Homo sapiens, UniProt P03372).
T1 construct: purchased PanVera Corporation
T1 sequence (P03372 1-595): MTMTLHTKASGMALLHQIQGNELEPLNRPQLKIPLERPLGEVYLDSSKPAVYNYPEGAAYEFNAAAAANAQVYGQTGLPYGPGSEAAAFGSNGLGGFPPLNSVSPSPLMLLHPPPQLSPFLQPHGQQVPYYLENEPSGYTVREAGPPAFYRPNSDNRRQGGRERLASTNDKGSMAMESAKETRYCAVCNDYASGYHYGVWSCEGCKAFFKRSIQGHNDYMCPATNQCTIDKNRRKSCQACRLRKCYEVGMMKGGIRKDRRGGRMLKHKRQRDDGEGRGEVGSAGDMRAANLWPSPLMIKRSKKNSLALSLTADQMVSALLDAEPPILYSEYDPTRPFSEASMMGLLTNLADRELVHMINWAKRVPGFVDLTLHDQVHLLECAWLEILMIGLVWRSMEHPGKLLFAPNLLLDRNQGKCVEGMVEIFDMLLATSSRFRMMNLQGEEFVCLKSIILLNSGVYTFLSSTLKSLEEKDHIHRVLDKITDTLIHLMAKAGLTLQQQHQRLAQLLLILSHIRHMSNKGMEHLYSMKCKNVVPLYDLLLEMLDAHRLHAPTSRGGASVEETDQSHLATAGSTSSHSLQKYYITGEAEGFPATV
The experiment in a line: Estrogen receptor alpha binding assay, displacement of [3H] Estradiol. The procedure:
(§1) The human estrogen receptor occurs in two subtypes, alpha and beta. The stable expression of these individual receptor subtypes in cells provides a rapid and accurate means of quantifying the direct interaction of a test article with the estrogen binding sites. Briefly, this assay is conducted in 96 well plates where a series of concentrations of test article are used to displace tritiated estradiol from either estrogen receptor alpha or estrogen receptor beta bearing cell membranes, under equilibrium conditions. […] This measurement is the primary test for mediation of the estrogen receptor and can also be used to measure the relative selectivity of the test article for either the alpha or beta subtype.
The alpha subtype assay measures the binding of [^3H] Estradiol to the human recombinant estrogen receptor. […] Briefly, after proper dilution, a 4.5 ng aliquot of receptor protein in modified Tris-HCL pH 7.5 buffer is incubated with 0.5 nM [^3H] Estradiol for 2 hours at 25° C. Non-specific binding is estimated in the presence of 1.0 μM diethylstilbestrol. Membranes are filtered and washed 3 times, and the filters are counted to determine [^3H] Estradiol specifically bound. Under the same conditions the receptor protein is incubated with varied concentrations of test article ranging from 1 nM to 1 μM and the displacement of [^3H] Estradiol is measured in duplicate. The measurement of the displaced tritiated estradiol allows the determination of an IC50 value, a direct measure of the test articles interaction with the estrogen receptor alpha.

Experiment [2] addresses human recombinant estrogen receptor beta (Homo sapiens, UniProt Q92731). The experiment in a line: Estrogen receptor beta binding assay, displacement of [3H] Estradiol. As for the experimental part: as §1
The beta subtype assay also allowed the determination of an IC50 value of the test article under the same conditions as for the alpha subtype assay with the exception that a 7.5 ng aliquot of receptor protein preparation was used.

A further experiment relates to MCF-7 cells. The experiment in a line: MCF-7 cell proliferation assay (MTT), estradiol stimulated versus unstimulated. The class given is cell-based, human. The conditions noted are these: FIGS. 1 and 2. The text has this: Those skilled in the art will appreciate that several acceptable estrogen receptor-binding assays are known and available for initial screening of the compounds of the present invention. The initial screen chosen was a human cell line assay, namely the MCF-7 cell proliferation assay for detecting anti-estrogenic/estrogenic activity. The MCF-7 human breast cancer cell line has been used as an industry standard for the evaluation of estrogen receptor antagonists. MCF-7 cells are estrogen-receptor positive (ER+) cancer cells that respond to estradiol stimulation. Antiestrogenic activity is measured in terms of a test article's ability to inhibit estradiol stimulated proliferation, implying an antagonistic action on the estrogen receptor and estogenic activity can be inferred from increased proliferation. The following testing procedure was used.
MCF-7 cells were maintained in RPMI medium free of phenol red and supplemented with 5% charcoal-stripped foetal calf serum, hydrocortisone, bovine insulin, penicillin and streptomycin until they reached 70% confluence. […] Cell survival was evaluated after 3-6 days, by replacing the culture media with 150 μl of fresh medium containing 10 mM 4-(2-hydroxyethyl)-1-piperazineethamsulfonic acid buffer (pH 7.4) followed by addition of 50 μl of 2.5 mg/ml of 3-(4,5-dimethylthiazo-2-yl)-2,5-diphenyltetrazolium bromide (MTT). […]

The test system of experiment [3] is tamoxifen-resistant breast cancers. The conditions noted are these: tamoxifen-resistant breast cancer patients; cited from earlier work.
Where [4] appears, read: 0.5 nM [3H] Estradiol, 2 hours at 25° C, 4.5 ng receptor protein, read-out: IC50 Value, ER Subtype Alpha.
[5] abbreviates: 0.5 nM [3H] Estradiol, 2 hours at 25° C, 7.5 ng receptor protein, read-out: IC50 Value, ER Subtype Beta.

Where two headings read alike, the source gives them in different places.

human recombinant estrogen receptor beta, sequence (Q92731 whole entry): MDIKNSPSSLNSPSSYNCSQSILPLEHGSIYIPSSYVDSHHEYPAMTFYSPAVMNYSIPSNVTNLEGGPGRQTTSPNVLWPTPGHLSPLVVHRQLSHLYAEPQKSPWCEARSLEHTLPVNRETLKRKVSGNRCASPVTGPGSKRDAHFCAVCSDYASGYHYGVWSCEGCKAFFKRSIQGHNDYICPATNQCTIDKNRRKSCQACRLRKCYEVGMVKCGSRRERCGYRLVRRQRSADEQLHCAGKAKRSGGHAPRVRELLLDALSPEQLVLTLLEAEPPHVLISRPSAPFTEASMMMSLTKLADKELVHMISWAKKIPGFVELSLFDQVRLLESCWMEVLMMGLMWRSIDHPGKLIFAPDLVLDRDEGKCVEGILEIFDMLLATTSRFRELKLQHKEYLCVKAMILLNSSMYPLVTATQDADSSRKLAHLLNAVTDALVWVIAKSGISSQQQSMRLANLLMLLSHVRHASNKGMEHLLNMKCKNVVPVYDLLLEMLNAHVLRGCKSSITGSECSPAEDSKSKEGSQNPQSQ

For the compound `Cc1cc(O)cc2cc(-c3ccc(OCCN4CCCCC4)cc3)c3cc(C(=O)C(C)C)ccc3c12` [formula 3, 1-[7-hydroxy-5-methyl-10-[4-(2-piperidin-1-yl-ethoxy)-phenyl]-phenanthren-2-yl]-2-methyl-propan-1-one], the half-maximal inhibitory concentration (IC50) in experiment [1] (setting [4]) came to 0.039 µM; in experiment [2] (setting [5]), 0.12 µM. For the same compound, the “effect on estradiol stimulated MCF-7 cell proliferation (shift of dose-response curves)” value in the experiment on MCF-7 cells is given as “antagonizing the effect of estradiol”.
Turning to `CC(=O)c1ccc2c(c1)c(-c1ccc(OCCN3CCCCC3)cc1)cc1cc(O)cc(C)c12` [Formula 4, 1-[7-hydroxy-5-methyl-10-[4-(2-piperidin-1-yl-ethoxy)-phenyl]-phenanthren-2-yl]-ethanone], in the experiment on MCF-7 cells, the “effect on estradiol stimulated MCF-7 cell proliferation (shift of dose-response curves)” value is recorded as “antagonizing the effect of estradiol”.
As for `C[C@]12CC[C@@H]3c4ccc(O)cc4C[C@@H](CCCCCCCCC[S+]([O-])CCCC(F)(F)C(F)(F)F)[C@H]3[C@@H]1CC[C@@H]2O` (stereo partly drawn) [ICI 182780], in experiment [3], the “tamoxifen-resistant patients who responded” value is “approximately two-thirds”.
`C=C(C)c1ccc2c(c1)c(-c1ccc(OCCN3CCCCC3)cc1)cc1cc(O)cc(C)c12` [formula 5]: the IC50 in experiment [1] (setting [4]) is 0.032 µM; in experiment [2], 0.02 µM.
For `CC(C)=C(C)c1ccc2c(c1)c(-c1ccc(OCCN3CCCCC3)cc1)cc1cc(O)cc(C)c12` [formula 6, 7-(1,2-dimethylpropenyl)-4-methyl-9-[4-(2-piperidin-1-yl-ethoxy)-phenyl]-phenanthren-2-ol], the concentration for half-maximal inhibition (IC50) in experiment [1] turned out to be 0.018 µM; in experiment [2] (setting [5]) it was 0.009 µM.

For orientation: IC50 means the midpoint of a concentration-inhibition curve.

The record behind these values is patent US20020156077A1, “Non-steroidal estrogen receptor ligands” (priority 2001, published 2002).
